Measurements published in patent US20220133702A1, “CYSTIC FIBROSIS TRANSMEMBRANE CONDUCTANCE REGULATOR MODULATORS FOR TREATING AUTOSOMAL DOMINANT POLYCYSTIC KIDNEY DISEASE” (The Johns Hopkins University, priority 2020, published 2022).

How the values were obtained:
cAMP in PN cells = experiment: Cyclic AMP enzyme immunoassay in cells; type: cell-based, mouse; conditions: for increase of cAMP activity: PN cells treated with forskolin or IBMX
Protocol: FIG. 4A, FIG. 4B, FIG. 4C, FIG. 4D, and FIG. 4E show (FIG. 4A-FIG. 4B) cAMP levels are reduced by VX-809. (FIG. 4A) cAMP levels in mouse tissue were reduced by VX-809. The kidney samples (n=6) analyzed were taken from those depicted in FIG. 1. (FIG. 4B) Confluent PN and PH cells were treated with VX-809 (10 μM) or DMSO for 16 hand then treated with forskolin (100 μM) for 30 min before the cells were harvested for the assay. Columns represent means±SEM. Statistical analysis was performed using a two-tailed Student's t-test. Each set of data is from three individual wells; Note that resting cAMP is greater in PN vs PH cells as previously shown (25). Also note that forskolin caused a large increase in cAMP. A smaller increase occurred with IBMX. However, the increase induced by forskolin alone was similar to that by IBMX plus forskolin. […] (FIG. 4C, FIG. 4D, and FIG. 4E) Adenylyl cyclase expression. (FIG. 4C) Western blot showing the expression of adenylyl cyclase (AC) 6 and AC3 in treated and control PN cells. (FIG. 4D-FIG. 4E) Columns represent means±SEM of the AC3 and AC6 expression. The data were analyzed by non-parametric t-test. The experiment was repeated four times. For all graphs, *P<0.05, **P<0.01, and ***P<0.001;
It has been shown previously in both animal and cell culture models of ADPKD that cells lacking functional PC1 have elevated cAMP levels when compared to normal. To assess the effect of CFTR correctors, cAMP activity was measured in PC1 conditional knockout mouse kidneys and in PN cells that were either left untreated or treated with VX-809. […] Cells were treated with forskolin, which increased cAMP levels drastically (FIG. 4B). It should be noted that VX-809 reduced the forskolin-induced increase in cAMP, indicating a direct action of VX-809 on adenylyl cyclase activity. […] Treating PN cells with forskolin or IBMX (FIG. 4B) increased the cAMP activity by approximately 10-fold.
Cyclic AMP assay. Confluent cells were treated with VX-809 (10 μM) or DMSO for 16 h before being harvested for assay. Cyclic AMP levels were measured with a direct cAMP Enzyme Immunoassay Kit (Sigma, #CA200) according to the manufacturer's protocol. The results are expressed as pmole/ml. Statistical analysis was performed using a two-tailed Student's t-test.

[1] = tested on: Hsp27, Hsp70, and Hsp90 in PN cells; experiment: Disappearance of Hsps after translation block with cycloheximide; type: cell-based, mouse; conditions: cycloheximide 25 μM alone, over 8 h
Protocol: FIG. 9A, FIG. 9B, FIG. 9C, FIG. 9D, FIG. 9E, FIG. 9F, FIG. 9G, and FIG. 9H show Hsp27, HSp70, and Hsp90 expression in PN cells treated with VX-809 and/or cycloheximide. (A) Pkd1 null (PN) cells were treated with VX-809 (10 μM) and/or with cycloheximide (25 μM) for indicated time points before being harvested for the assay. (FIG. 9A) Western blot showing expression of Hsp27, Hsp70, and Hsp90 in VX-809-(16 h), cycloheximide-treated, or control PN cells. ((FIG. 9B. (FIG. 9C, and (FIG. 9D) Columns represent averages±standard errors of Hsp27, Hsp70, and Hsp90 expression in cells treated with VX-809 and/or cycloheximide. ((FIG. 9E) Western blot showing expression of Hsp27, Hsp70, and Hsp90 in PN cells treated with VX-809+cycloheximide or control PN cells. ((FIG. 9F, FIG. 9G, and FIG. 9H) Columns represent averages±standard errors of Hsp27, Hsp70, and Hsp90 expression in cells treated only with cycloheximide or in control PN cells. Data were analyzed by non-parametric t-test. The experiments were repeated 3-5 times. *P<0.05, **P<0.01;
To gain more insight into the mechanism whereby VX-809 alters Hsp protein levels, translation was inhibited by using cycloheximide and the disappearance of the three Hsps was monitored. […] Hsp90 was reduced by approximately 25%, and Hsp27 was unchanged.

Row | SMILES | increase of cAMP activity (cAMP in PN cells) | steady-state levels of each of the Hsps [1] | elevation of cAMP activity (cAMP in PN cells; forskolin, as stated at the end of Example 4)
1 | CC(C)Cn1c(=O)n(C)c(=O)c2[nH]cnc21 [IBMX, 3-isobutyl-1-methylxanthine] | approximately 10 fold |  | 
2 | C[C@@H]1C[C@@H]([C@H](O)CC2CC(=O)NC(=O)C2)C(=O)[C@@H](C)C1 [cycloheximide] |  | unchanged | 
3 | C=C[C@@]1(C)CC(=O)[C@]2(O)[C@@]3(C)[C@@H](O)CCC(C)(C)[C@@H]3[C@H](O)[C@H](OC(C)=O)[C@@]2(C)O1 [forskolin] | approximately 10 fold |  | ~500 fold
